From patent publication US3958013A, “Halogenated cyclobutyl ether anesthetics” (W. R. Grace & Co., priority 1975, dated 1976)

What was measured:
[1] = standard test for evaluation of inhalation anesthetics in mice (rotating drum, 10 min exposure); assay type: in vivo; settings: mouse, in vivo, inhaled or intranasal; calculated from AC50 and LC50 minimum concentrations; read-out: AI (anesthetic index)
Protocol: (§1) In this test, mice were exposed to the compound for a period of 10 minutes in a rotating drum. Observations were made of the pinch reflex, the corneal reflex and the return of the righting reflex. At least four graded doses were employed to determine the minimum concentration required to anesthetized 50% of the mice (AC50) and the minimum concentration required to kill 50% of the mice (LC50). The anesthetic index (AI) was then calculated from these minimum concentrations.

mice = test: as above; assay type: in vivo; settings: mice, inhalation, 10 minutes exposure, rotating drum; % volume
Protocol: as §1

[2] = cited from earlier work; for anesthetic properties / utility: prior art statement (fluorocyclobutanes: Larsen 1969 review)

SMILES	selectivity ratio at 10 min [1]	LC50 (minimum concentration required to kill 50% of the mice) (mice)	anesthetic properties / utility [2]	other results
COC1(F)C(F)(F)C(F)(F)C1(F)Cl (centres unmarked) [Example 1, 1-chloro-2-methoxy-1,2,3,3,4,4-hexafluorocyclobutane]	~2	7-8%	–	–
C1CCCC1 [cyclopentane]	–	–	no medical utility	–
COC1(F)C(F)(F)C(F)(F)C1(F)Br (centres unmarked) [Example 3, 1-bromo-2-methoxy-1,2,3,3,4,4-hexafluorocyclobutane]	> 2.5	> 2.5%	–	–
FC1C(F)C(F)(F)C1(F)F (centres unmarked) [1,2-dihydrohexafluoro-]	–	–	possesses anesthetic properties	–
FC1(F)C(F)(F)C(F)(F)C1(F)F [octafluoro-]	–	–	inactive	–
COC1CC(F)(F)C1(F)Cl (centres unmarked) [Example 2, 1-chloro-2methoxy-1,4,4-trifluorocyclobutane]	> 2	> 2%	–	–
FC1(F)C(F)(F)C(F)(Cl)C1(F)Cl (centres unmarked) [1,2-dichlorohexafluoro-]	–	–	–	toxicity ([2]; Larsen 1969 review): toxic
C1CC1 [cyclopropane]	–	–	effective if inflammable anesthetic	–
